Measurements: patent publication US4115385A, “Antibacterial 3-(5-tetrazolyl) penam compounds” (Pfizer Inc., priority 1977, dated 1978)
Converted amounts (≈) assume the structure as drawn.

Each compound was assayed on Streptococcus pyogenes (assay: In vitro minimum inhibitory concentration (MIC) vs. Strep. pyogenes). Conditions: Streptococcus pyogenes, read-out: MIC vs. Strep. pyogenes.
Format: cell-based
Procedure, shortened: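 Broth inoculated with bacteria and test antibiotic, incubated overnight and read visually; MIC is the lowest concentration preventing turbidity. Test preparations also contain some of the corresponding tetrazole tautomer.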

| Structure (SMILES) | MIC [µg/mL] |
| --- | --- |
| CC1(C)S[C@@H]2[C@H](NC(=O)C(NC(=O)CSC3=NCCN3)c3ccccc3)C(=O)N2[C@H]1c1nn[nH]n1 (some centres unmarked) [6-(2-[2-(Δ^1 -Imidazolin-2-ylthio)acetamido]-2-phenylacetamido)-2,2-dimethyl-3-(5-tetrazolyl)penam] | < 0.1 |
| CCNC(=O)NCC(=O)N[C@@H](C(=O)N[C@@H]1C(=O)N2[C@@H]1SC(C)(C)[C@@H]2c1nnn[nH]1)c1ccccc1 [6-(D-2-[2-(3-Ethylureiod)acetamido]-2-phenylacetamido)-2,2-dimethyl-3-(5-tetrazolyl)penam] | < 0.1 |
| CC1(C)S[C@@H]2[C@H](NC(=O)[C@H](NC(=O)Cc3ccc(N)cc3)c3ccccc3)C(=O)N2[C@H]1c1nn[nH]n1 [6-(D-2-[2-(4-Aminophenyl)acetamido]-2-phenylacetamido)-2,2-dimethyl-3-(5-tetrazolyl)penam] | < 0.1 |
| CC1(C)S[C@@H]2[C@H](NC(=O)[C@H](NC(=O)CNC(=N)c3ccncc3)c3ccc(O)cc3)C(=O)N2[C@H]1c1nnn[nH]1 [6-(D-2-[2-(4-Pyridinecarboxamidino)acetamido]-2-(p-hydroxyphenyl]acetamido)-2,2-dimethyl-3-(5-tetrazolyl)penam] | < 0.1 |
| CC1(C)S[C@@H]2[C@H](NC(=O)[C@H](NC(=O)Cc3ccc([N+](=O)[O-])cc3)c3ccccc3)C(=O)N2[C@H]1c1nn[nH]n1 [6-(D-2-[2-(4-nitrophenyl)acetamido]-2-phenylacetamido)-2,2-dimethyl-3-(5-tetrazolyl)penam] | < 0.1 |
| CC1(C)S[C@@H]2[C@H](NC(=O)[C@H](NC(=O)CNC(=N)c3ccncc3)c3ccccc3)C(=O)N2[C@H]1c1nnn[nH]1 [6-(D-2-[2-(4-pyridinecarboxamidino)acetamido]-2-phenylacetamido)-2,2-dimethyl-3-(5-tetrazolyl)penam] | < 0.1 |
| CC1(C)S[C@@H]2[C@H](NC(=O)[C@H](NC(=O)CNC(=N)c3ccccc3)c3ccccc3)C(=O)N2[C@H]1c1nnn[nH]1 [6-(D-2-[2-(Benzamidino)acetamido]-2-phenylacetamido)-2,2-dimethyl-3-(5-tetrazolyl)penam] | < 0.1 |
| CC1(C)S[C@@H]2[C@H](NC(=O)[C@H](NC(=O)CCl)c3ccco3)C(=O)N2[C@H]1c1nn[nH]n1 [6-(D-2-[2-Chloroacetamido]-2-[2-furyl]acetamido)-2,2-dimethyl-3-(5-tetrazolyl)penam] | < 0.1 |
| CC1(C)S[C@@H]2[C@H](NC(=O)[C@H](NC(=O)CN)c3ccc(O)cc3)C(=O)N2[C@H]1c1nnn[nH]1 [6-(D-2-[2-aminoacetamido]-2-[4-hydroxyphenyl]acetamido)-2,2-dimethyl-3-(5-tetrazolyl)penam] | < 0.1 |
| CC1(C)S[C@@H]2[C@H](NC(=O)[C@H](NC(=O)C(=Cc3ccc(Cl)cc3)C(=O)O)c3ccccc3)C(=O)N2[C@H]1c1nnn[nH]1 [6-(D-2-[2-carboxy-2(p-chlorophenyl)acrylamido]-2-phenylacetamido)-2,2-dimethyl-3-(5-tetrazolyl)penam] | < 0.1 |
| CC1(C)S[C@@H]2[C@H](NC(=O)[C@H](NC(=O)C(=Cc3cccs3)C(=O)O)c3ccccc3)C(=O)N2[C@H]1c1nnn[nH]1 [6-(D-2-[2-carboxy-3-(2-thienyl)acrylamido]-2-phenylacetamido)-2,2-dimethyl-3-(5-tetrazolyl)penam] | < 0.1 |
| CC1(C)S[C@@H]2[C@H](NC(=O)[C@H](NS(=O)(=O)c3ccccc3)c3ccc(O)cc3)C(=O)N2[C@H]1c1nn[nH]n1 [6-(D-2-[Benzenesulfonamido]-2-[p-hydroxyphenyl]acetamido)-2,2-dimethyl-3-(5-tetrazolyl)penam] | < 0.1 |

Same assay, conditions: Streptococcus pyogenes; Examples; read-out: MIC against Strep. pyogenes

| Structure (SMILES) | MIC [µg/mL] |
| --- | --- |
| CC1(C)S[C@@H]2[C@H](NC(=O)[C@H](NC(=O)Nc3ccccc3)c3ccc(O)cc3)C(=O)N2[C@H]1c1nnn[nH]1 [6-(2-[3-Phenylureido]-2-[p-hydroxyphenyl]acetamido)-2,2-dimethyl-3-(5-tetrazolyl)penam] | < 0.1 |
| CC(C)(C)C(=O)OCn1nnc([C@@H]2N3C(=O)[C@@H](NC(=O)[C@H](N)c4ccc(O)cc4)[C@H]3SC2(C)C)n1 [6-(D-2-Amino-2-[p-hydroxyphenyl]acetamido)-2,2-dimethyl-3-(2-[pivaloyloxymethyl]tetrazol-5-yl)penam] | 0.39 (≈ 0.774 µM) |

Same assay, conditions: Streptococcus pyogenes; Table II; two-fold serial dilution, Brain-Heart Infusion broth, overnight; read-out: MIC vs. Strep. pyogenes

| MIC [µg/mL] | Structure (SMILES) |
| --- | --- |
| 100 (≈ 203 µM) | CC1(C)S[C@@H]2[C@H](NC(=O)CNC(=O)NC(=N)Cc3ccc(Cl)cc3)C(=O)N2[C@H]1c1nnn[nH]1 [6-(2-[3-(2-[p-Chlorophenyl]acetimidoyl)ureido]acetamido)-2,2-dimethyl-3-(5-tetrazolyl)penam] |
| 0.004 (≈ 0.00753 µM) | CC1(C)S[C@@H]2[C@H](NC(=O)[C@H](NC(=O)CNC(=O)NC(=N)N)c3ccc(O)cc3)C(=O)N2[C@H]1c1nnn[nH]1 [6-(D-2-[2-(3-[guanyl]ureido)acetamido]-2-[4-hydroxyphenyl]acetamido)-2,2-dimethyl-3-(5-tetrazolyl)penam] |
| 0.2 (≈ 0.382 µM) | CC1(C)S[C@@H]2[C@H](NC(=O)[C@H](NC(=O)COc3ccccc3)c3ccc(O)cc3)C(=O)N2[C@H]1c1nnn[nH]1 [6-(D-2-[2-Phenoxyacetamido]-2-[4-hydroxyphenyl]acetamido)-2,2-dimethyl-3-(5-tetrazol-5-yl)penam] |
| 0.004 (≈ 0.00679 µM) | CCN=C(NCC)SCC(=O)NC(=O)N[C@@H](C(=O)N[C@@H]1C(=O)N2[C@@H]1SC(C)(C)[C@@H]2c1nn[nH]n1)c1ccccc1 [6-(D-2-[3-(2-(N,N'-diethylguanylthio]acetyl)ureido]-2-phenylacetamido)-2,2-dimethyl-3-(5-tetrazolyl)penam] |
| 0.004 (≈ 0.00751 µM) | CC1(C)S[C@@H]2[C@H](NC(=O)[C@H](NC(=O)NC(=O)CSC(=N)N)c3ccccc3)C(=O)N2[C@H]1c1nn[nH]n1 [6-(D-2-[3-(2-[Guanylthio]acetyl)ureido]-2-phenylacetamido)-2,2-dimethyl-3-(5-tetrazol-5-yl)penam] |
| 0.004 (≈ 0.00843 µM) | CC1(C)S[C@@H]2[C@H](NC(=O)[C@H](NC(=O)NC(=N)N)c3ccc(O)cc3)C(=O)N2[C@H]1c1nnn[nH]1 [6-(D-2-[3-guanylureido]-2-[4-hydroxyphenyl]acetamido)-2,2-dimethyl-3-(5-tetrazolyl)-penam] |
| 0.2 (≈ 0.41 µM) | CC1(C)S[C@@H]2[C@H](NC(=O)[C@H](NC(=O)C3OC3C(=O)O)c3ccccc3)C(=O)N2[C@H]1c1nnn[nH]1 (stereo partly drawn) [6-(D-2-[4-Carboxy-2,3-propionamido]-2-phenylacetamido)-2,2-dimethyl-3-(5-tetrazol-5-yl)penam] |
| 0.2 (≈ 0.409 µM) | CC1(C)S[C@@H]2[C@H](NC(=O)[C@H](NC(=O)COCC(=O)O)c3ccccc3)C(=O)N2[C@H]1c1nnn[nH]1 [6-(D-2-[Carboxymethoxy]acetamido-2-phenylacetamido)-2,2-dimethyl-3-(5-tetrazolyl)penam] |

| Structure (SMILES) | MIC [µg/mL] |
| --- | --- |
| Cc1onc(-c2ccccc2Cl)c1C(=O)N[C@@H]1C(=O)N2[C@@H]1SC(C)(C)[C@@H]2c1nnn[nH]1 [6-(3-[2-Chlorophenyl]-5-methyl-4-isoxazolecarboxamido)-2,2-dimethyl-3-(5-tetrazolyl)penam] | < 0.1 |

Same assay, conditions: Streptococcus pyogenes; Table IV; read-out: MIC vs. Strep. pyogenes

| MIC [µg/mL] | Structure (SMILES) |
| --- | --- |
| 6.25 (≈ 15.6 µM) | CC1(C)S[C@@H]2[C@H](N3CN[C@H](c4ccc(O)cc4)C3=O)C(=O)N2[C@H]1c1nnn[nH]1 [6-(5-Oxo-4-[p-hydroxyphenyl]-1-imidazolidinyl)-2,2-dimethyl-3-(5-tetrazolyl)penam] |
| 6.25 (≈ 16.2 µM) | CC1(C)S[C@@H]2[C@H](N3CN[C@H](c4ccccc4)C3=O)C(=O)N2[C@H]1c1nnn[nH]1 [6-(5-Oxo-4-phenyl-1-imidazolidinyl)-2,2-dimethyl-3-(5-tetrazolyl)penam] |
| 0.39 (≈ 0.774 µM) | CC(C)(C)C(=O)OCn1nnc([C@@H]2N3C(=O)[C@@H](NC(=O)[C@H](N)c4ccc(O)cc4)[C@H]3SC2(C)C)n1 [6-(D-2-Amino-2-[p-hydroxyphenyl]acetamido)-2,2-dimethyl-3-(2-[pivaloyloxymethyl]tetrazol-5-yl)penam] |
